In brackets after ≈: the same amount, converted by molar mass. Activity calls are given as the source filed them. No cut-off for these calls is given here.
Columns and labels:
[1] = system: Candida albicans; experiment: Antimicrobial activity against fluconazole susceptible Candida albicans isolate 5052 expressing low levels of ERG11 and UPC2 mRNA by microdilution method; assay type: functional
[2] = system: Candida albicans; experiment: Antimicrobial activity against fluconazole susceptible Candida albicans isolate 1002 expressing low levels of ERG11 and UPC2 mRNA by microdilution method; assay type: functional
[3] = system: Candida albicans; experiment: Antimicrobial activity against Candida albicans isolate SC5314 expressing UPC2 G648D/UPC2 A643T double mutant alleles by microdilution method relative wild type; assay type: functional, organism-based
[4] = system: Candida albicans; experiment: Antimicrobial activity against fluconazole resistant Candida albicans isolate 3795 expressing high levels of ERG11 and UPC2 mRNA by microdilution method; assay type: functional
[5] = system: Candida albicans; experiment: Antimicrobial activity against Candida albicans isolate SC5314 expressing UPC2/UPC2 G648D mutant allele by microdilution method relative wild type; assay type: functional
[6] = system: Candida albicans; experiment: Antimicrobial activity against fluconazole susceptible Candida albicans 5054 expressing low levels of ERG11 and UPC2 mRNA by microdilution method; assay type: functional
[7] = system: Candida albicans; experiment: Antimicrobial activity against fluconazole susceptible Candida albicans isolate 580 expressing low levels of ERG11 and UPC2 mRNA by microdilution method; assay type: functional
[8] = system: Candida albicans; experiment: Antimicrobial activity against fluconazole resistant Candida albicans isolate 1619 expressing high levels of ERG11 and UPC2 mRNA by microdilution method; assay type: functional
[9] = system: Candida albicans; experiment: Antimicrobial activity against fluconazole susceptible Candida albicans isolate 945 expressing low levels of ERG11 and UPC2 mRNA by microdilution method; assay type: functional
[10] = system: Candida albicans; experiment: Antimicrobial activity against fluconazole resistant Candida albicans isolate 2440 expressing high levels of ERG11 and UPC2 mRNA by microdilution method; assay type: functional
[11] = system: Candida albicans; experiment: Antimicrobial activity against Candida albicans isolate SC5314 expressing UPC2 G648D/UPC2 G648D double mutant alleles by microdilution method relative wild type; assay type: functional
[12] = system: Candida albicans; experiment: Antimicrobial activity against Candida albicans isolate SC5314 expressing UPC2/UPC2 A643T mutant allele by microdilution method relative wild type; assay type: functional, organism-based

OC(Cn1cncn1)(Cn1cncn1)c1ccc(F)cc1F [FLUCONAZOLE]
MIC [1]: 32 µg/mL (≈ 104 µM)
MIC [2]: 0.25 µg/mL (≈ 0.816 µM)
MIC [3]: inactive
MIC [4]: > 64 µg/mL
Ratio [5]: 4
MIC [6]: 4 µg/mL (≈ 13.1 µM)
MIC [7]: 1 µg/mL (≈ 3.27 µM)
MIC [8]: 32 µg/mL (≈ 104 µM)
MIC [9]: 4 µg/mL (≈ 13.1 µM)
MIC [10]: 32 µg/mL (≈ 104 µM)
Ratio [11]: 8
MIC [12]: inactive
